Where “and” joins values, the source holds several entries; their conditions need not be identical. Equal entries are not always repeated.
Assays:
[1] = Pb in whole blood and saliva of rats after single acute oral doses of Pb-acetate; type: in vivo, Fisher 344 rats
Text: Different sample pretreatment procedures for the effective release of the Pb from its binding sites in the biological fluids have been previously reviewed. (Wang, J.: Stripping analysis of trace metals in human body fluids. J. Electroanal. Chem., 139: 225-232 (1982)). It was reported that 0.5 M HCl can effectively release Pb^2+ ion from blood samples. (Nagler, R. M., Baum, B. J., and Fox, P. C.: Effect of X irradiation on the function of rat salivary glands at 3 and 40 days. Rad. Res., 136: 392-396 (1993)). In our work saliva sample was diluted 5 times with acidic solution to a final concentration of 0.5 M HCl. The sample solution was then loaded in sample reservoir and was delivered by the integrated micro-pump. The sample solution flowed across a mercury (Hg)-film working electrode and exited through an outflow groove positioned directly across the Pt auxiliary electrode. Square wave anodic stripping voltametry (SWASV) was utilized for quantitation of Pb in the specimens. For Pb detection, a constant potential of −1.10 V was applied to the glassy carbon Hg-film electrode. When sample solution flowed over the electrode surface, Pb^2+ was reduced and accumulated. After a 3-min accumulation period, the potential of the Hg-film electrode was scanned from −1.10 V to −0.10 V. To eliminate the sample matrix effect for blood and saliva samples, after the accumulation period, a clean solution (0.5 M HCl) was pumped from another reservoir and replaced the sample matrix, then the stripping analysis was performed. After each measurement the Pb was stripped from the electrode surface and the sensor was then available for analysis of the next specimen.
In order to validate the capability of the micro-analytical detection system to quantify Pb in biological specimens, rat studies were conducted using single acute oral doses of Pb-acetate. Adult male Fisher 344 rats were obtained from Charles River Laboratory and ranged from ˜0.230 to 0.260 kg of body weight when used. Groups of rats (3-5 animals/dose) were administered an aqueous solution of Pb-acetate by oral gavage at doses of 0, 20, 50, 100, 200 and 500 mg/kg of body weight. At ˜24 hr post-dosing the rats were anesthetized with an ip injection of ketamine (87 mg/kg):xylazine (13 mg/kg). In addition, each rat was given an ip injection of the cholinergic agonist pilocarpine (1 mg/kg) to induce salivation. Saliva was then collected from each rat, using a glass capillary tube, for approximately 30-min (˜1-2 mL saliva) at which time the rats were exsanguinated by cardiac puncture. Whole blood and saliva specimens were weighed and stored frozen (−80° C.) until the Pb analysis was conducted.
The concentration of Pb in the specimens was determined by inductively coupled plasma/mass spectrometry (ICP-MS). […]

[2] = Rate of salivation during pilocarpine treatment; type: in vivo, Fisher 344 rats; conditions: rat, pilocarpine 1 mg/kg ip
Method: In order to validate the capability of the micro-analytical detection system to quantify Pb in biological specimens, rat studies were conducted using single acute oral doses of Pb-acetate. Adult male Fisher 344 rats were obtained from Charles River Laboratory and ranged from ˜0.230 to 0.260 kg of body weight when used. Groups of rats (3-5 animals/dose) were administered an aqueous solution of Pb-acetate by oral gavage at doses of 0, 20, 50, 100, 200 and 500 mg/kg of body weight. At ˜24 hr post-dosing the rats were anesthetized with an ip injection of ketamine (87 mg/kg):xylazine (13 mg/kg). […]
A PBPK model describing the disposition of Pb in the rat was modified to accommodate a saliva compartment. In general, the PBPK model structure and parameter estimations were as previously described, and the reader is referred to O'Flagherty for a detailed description of the model. […] For simplification the model assumes a constant rate of saliva secretion based on the measured rate of salivation during pilocarpine treatment (0.048 L/day), recognizing that this represents an over estimation of normal saliva flow. […] The fraction of cardiac output to the saliva gland and 1st order absorption rate for intraperitoneal (ip) Pb administration were determined by fitting the data of Mobarak and P'an. […]

| Structure (SMILES) | blood Pb concentration ([1]; 500 mg/kg oral dose group, 24 hr post-dosing, saliva response non-linear relative to blood) | Pb in rat saliva, Results of ICP/MS ([1]; rat saliva ~24 hr after oral gavage of Pb-acetate, ICP-MS after acid digestion, individual samples 1-3) | Pb in rat saliva, Results of micro Analytical System ([1]; rat saliva ~24 hr after oral gavage of Pb-acetate, SWASV on Hg-film electrode, individual samples 1-3) | saliva Pb as percentage of the concentration in the blood ([1]; rat, oral Pb-acetate, ~24 hr post-dosing) | rate of saliva secretion [2] |
| --- | --- | --- | --- | --- | --- |
| CC(=O)[O-].CC(=O)[O-].[Pb+2] [Pb, Pb-acetate] | exceeding 0.7 mg/L | 99 ppb and 150 ppb and 116 ppb | 80 ppb and 108 ppb and 111 ppb | 8.5%-9 |  |
| CC[C@@H]1C(=O)OC[C@@H]1Cc1cncn1C [pilocarpine] |  |  |  |  | 0.048 L/day |
